Some test systems named below: A549; ACHN; CAKI-1; EKVX; HCC 2998; HCT-116; Hs-578T; IGROV-1; MCF7; NCI-H226; NCI-H522; PC-3; RPMI-8226; SF-268; SK-OV-3; SNB-75; U-251; UO-31.
Assay in all cases: DTP human tumour cell line panel, 48 h

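All cell lines were grown in 96-well plates and treated with compound for 48 hours. GI50: concentration for 50% inhibition of growth.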 Calls of active or inactive are those of the source. No stated cut-off is given here; in the data, active = GI50 up to about 1.1 µM and inactive = higher. Where only a bound is given, the exact number is not on record here.

The term GI50 denotes the concentration that inhibits growth by half. In the case of `N=C(N)NC(=N)Nc1ccc(S(=O)(=O)O)cc1`, the GI50 in the assay on A549, in the assay with ACHN, in the assay with CAKI-1, in the assay on EKVX, in the assay on HCC 2998 and in the assay on HCT-116 was > 100 µM (inactive) each time. The GI50 with Hs-578T, in the assay on IGROV-1, with MCF7, with NCI-H226, in the assay on NCI-H522 and in the assay with PC-3 was > 100 µM (inactive) in each case. In addition, the GI50 in the assay on RPMI-8226, in the assay with SF-268, with SK-OV-3, in the assay on SNB-75, in the assay on U-251 and in the assay with UO-31 was > 100 µM (inactive) in each case.

Regarding `O=C(NCCNCCNCCNC(=O)c1cc(-c2ccccc2)nc2ccccc12)c1cc(-c2ccccc2)nc2ccccc12`, the GI50 in the assay on A549 is 5.83 µM (inactive); with ACHN, 2.13 µM (inactive); in the assay on CAKI-1, 15.3 µM (inactive); with EKVX it was 5.96 µM (inactive); with HCC 2998, 1.71 µM (inactive); with HCT-116 it was 1.88 µM (inactive). Besides, the GI50 with Hs-578T is 2.25 µM (inactive); in the assay with IGROV-1 it was 2.52 µM (inactive); in the assay with MCF7, 2.04 µM (inactive); with NCI-H226, 2.64 µM (inactive); in the assay on NCI-H522, 1.67 µM (inactive); in the assay on PC-3, 3.48 µM (inactive). The GI50 with RPMI-8226 is 2.45 µM (inactive); with SF-268 it was 3.4 µM (inactive); in the assay with SK-OV-3 it was 3.02 µM (inactive); in the assay on SNB-75, 1.78 µM (inactive); with U-251, 1.73 µM (inactive); in the assay with UO-31, 6.9 µM (inactive).

As for `CCOC(=O)c1sc2[n+](c1C)C(=O)/C(=C/c1ccccc1Cl)S2`, the concentration for 50% growth inhibition (GI50) is 0.9 µM (active) in the assay on A549; 1.53 µM (inactive) with ACHN; 0.453 µM (active) in the assay on CAKI-1; 3.21 µM (inactive) in the assay with EKVX; 1.7 µM (inactive) with HCC 2998; 0.627 µM (active) in the assay with HCT-116. The GI50 in the assay with Hs-578T was 0.822 µM (active); with IGROV-1, 1.84 µM (inactive); in the assay on MCF7 it was 3.11 µM (inactive); in the assay on NCI-H226, 0.953 µM (active); in the assay on NCI-H522 it was 0.532 µM (active); with PC-3, 0.989 µM (active). Further, the concentration for 50% growth inhibition (GI50) with RPMI-8226 was 0.54 µM (active); in the assay on SF-268, 3.58 µM (inactive); in the assay on SK-OV-3, 1.99 µM (inactive); in the assay with SNB-75 it was 0.425 µM (active); in the assay with U-251, 0.583 µM (active); with UO-31 it was 0.684 µM (active).

With `CC(C(=O)ON1C(=O)CCC1=O)c1ccc(C(=O)c2ccccc2)s1` (stereo not drawn), the GI50 in the assay with A549, in the assay on ACHN, in the assay with CAKI-1, in the assay with EKVX, with HCC 2998 and with HCT-116 was > 100 µM (inactive) throughout. For the same molecule, the GI50 with Hs-578T, with IGROV-1, with MCF7, in the assay on NCI-H226, in the assay on NCI-H522 and with PC-3 was > 100 µM (inactive) in each case. Further, the GI50 with RPMI-8226, with SF-268, in the assay on SK-OV-3, in the assay on SNB-75, in the assay with U-251 and with UO-31 was > 100 µM (inactive) each time.

Turning to `CC1(C)OCC2OC(n3cnc4c(N)nc(Cl)nc43)C(OS(C)(=O)=O)C2O1` (stereo not drawn), the GI50 in the assay with A549, in the assay with ACHN, with CAKI-1, in the assay with EKVX, with HCC 2998 and with HCT-116 was > 100 µM (inactive) each time. Further, the GI50 in the assay on Hs-578T, in the assay with IGROV-1, in the assay on MCF7, in the assay on NCI-H226, in the assay on NCI-H522 and in the assay with PC-3 was > 100 µM (inactive) in each case. Moreover, the GI50 in the assay with RPMI-8226, in the assay with SF-268, with SK-OV-3, with SNB-75, in the assay on U-251 and in the assay with UO-31 was > 100 µM (inactive) each time.

As to `O=C(O)[C@H](c1ccccc1)[C@@H](C(=O)O)c1ccccc1`, the GI50 with A549, with ACHN, in the assay with CAKI-1, in the assay on EKVX, with HCC 2998 and in the assay on HCT-116 was > 100 µM (inactive) throughout. Also, the GI50 with Hs-578T, with IGROV-1, in the assay on MCF7, in the assay on NCI-H226, in the assay on NCI-H522 and with PC-3 was > 100 µM (inactive) throughout. Also, the GI50 with RPMI-8226, in the assay on SF-268, with SK-OV-3, in the assay with SNB-75, with U-251 and in the assay on UO-31 was > 100 µM (inactive) throughout.

In the case of `CCN(CC)CCC1CCCCN1CC(=O)N1c2ccccc2NC(=O)CC1C` (stereo not drawn), the GI50 in the assay with A549, in the assay with ACHN, in the assay on CAKI-1, with EKVX, in the assay on HCC 2998 and in the assay on HCT-116 was > 100 µM (inactive) each time. Moreover, the GI50 in the assay on Hs-578T, with IGROV-1, in the assay on MCF7, in the assay on NCI-H226, in the assay on NCI-H522 and in the assay on PC-3 was > 100 µM (inactive) throughout. The GI50 with RPMI-8226 is > 100 µM (inactive); in the assay with SF-268, > 100 µM (inactive); in the assay with SK-OV-3, > 100 µM (inactive); in the assay with SNB-75, 0.0933 µM (active); in the assay with U-251, > 100 µM (inactive); in the assay on UO-31 it was > 100 µM (inactive).

Consider `O=C(CC(O)(C(F)(F)Cl)C(F)(F)Cl)CC(O)(C(F)(F)Cl)C(F)(F)Cl`, for which the GI50 in the assay with A549 is 1.73 µM (inactive); in the assay with ACHN it was 0.927 µM (active); in the assay with CAKI-1, 2 µM (inactive); in the assay with EKVX it was 1.21 µM (inactive); in the assay with HCC 2998, 1.74 µM (inactive); in the assay on HCT-116, 1.19 µM (inactive). Also, the GI50 in the assay on Hs-578T was 1.92 µM (inactive); with IGROV-1, 2.17 µM (inactive); with MCF7 it was 2.14 µM (inactive); with NCI-H226, 1.33 µM (inactive); in the assay on NCI-H522, 1.2 µM (inactive); with PC-3 it was 1.11 µM (active). The GI50 in the assay with RPMI-8226 was 0.516 µM (active); with SF-268, 1.5 µM (inactive); with SK-OV-3 it was 1.87 µM (inactive); with SNB-75, 1.76 µM (inactive); in the assay on U-251, 1.65 µM (inactive); with UO-31, 0.929 µM (active).

Take `CC(C)c1cccc(C(C)C)c1NC(=O)/C(CC(=O)CC(c1ccccc1)c1c(O)c2ccccc2oc1=O)=N/O` (stereo not drawn): the GI50 with A549, with ACHN, in the assay on CAKI-1, with EKVX, in the assay with HCC 2998 and in the assay with HCT-116 was > 100 µM (inactive) throughout. Further, the GI50 with Hs-578T, with IGROV-1, in the assay on MCF7, in the assay with NCI-H226, in the assay on NCI-H522 and in the assay with PC-3 was > 100 µM (inactive) in each case. The GI50 with RPMI-8226 was > 100 µM (inactive); in the assay with SF-268, > 100 µM (inactive); in the assay on SK-OV-3, > 100 µM (inactive); in the assay on SNB-75, > 100 µM (inactive); with U-251, > 100 µM (inactive); in the assay with UO-31, > 95.9 µM (inactive).

As to `Cc1c2cccc-2c2cc(O)c3ccccc3c2n1-c1ccc(N(C)C)cc1`, the GI50 in the assay on A549 was 14.6 µM (inactive); in the assay on ACHN, 12.4 µM (inactive); with CAKI-1 it was 16 µM (inactive); with EKVX it was 2.83 µM (inactive); in the assay with HCC 2998 it was 13 µM (inactive); in the assay on HCT-116 it was 15.7 µM (inactive). In addition, the GI50 with Hs-578T was 15 µM (inactive); with IGROV-1, 2.59 µM (inactive); in the assay on MCF7, 0.395 µM (active); in the assay on NCI-H226, 9.68 µM (inactive); with NCI-H522, 14.8 µM (inactive); in the assay with PC-3, 11.7 µM (inactive). The GI50 was 6.22 µM (inactive) in the assay on RPMI-8226; 15.9 µM (inactive) with SF-268; 15.8 µM (inactive) in the assay on SK-OV-3; 4.06 µM (inactive) with SNB-75; 13.2 µM (inactive) in the assay on U-251; 11.5 µM (inactive) with UO-31.

For `Nc1nc(N)c2nc(CN(C=O)c3ccc(C(=O)O)cc3)cnc2n1`, the GI50 in the assay with A549 is 6.14 µM (inactive); in the assay with ACHN, 3.94 µM (inactive); with CAKI-1 it was > 28.2 µM (inactive); in the assay with EKVX, > 26.4 µM (inactive); in the assay with HCC 2998, > 100 µM (inactive); in the assay on HCT-116 it was 3.84 µM (inactive). The GI50 in the assay on Hs-578T is > 100 µM (inactive); with IGROV-1 it was 44.5 µM (inactive); in the assay with MCF7, 5.31 µM (inactive); in the assay with NCI-H226 it was > 100 µM (inactive); in the assay with NCI-H522, 0.438 µM (active); in the assay on PC-3, 0.668 µM (active). Further, the GI50 with RPMI-8226 is 14.7 µM (inactive); in the assay on SF-268, 9.68 µM (inactive); with SK-OV-3, > 30.1 µM (inactive); with SNB-75 it was > 52.1 µM (inactive); in the assay with U-251 it was > 93.5 µM (inactive); with UO-31, > 22.3 µM (inactive).

The values above are taken from ChEMBL document CHEMBL1201862, “PubChem BioAssay data set” (2004).
